Activity calls are given as the source filed them. The calls are words filed in the database; no cut-off is given here.
Key:
Type in all cases: functional
SF-268 = test: Growth inhibition of human SF268 cells at 10 uM after 48 hrs by SRB assay relative to control; settings: SF-268, 48 h, read-out: GI
RPMI-8226 = test: Growth inhibition of human RPMI8226 cells at 10 uM after 48 hrs by SRB assay relative to control; settings: RPMI-8226, 48 h, read-out: GI
CAKI-1 = test: Growth inhibition of human Caki1 cells at 10 uM after 48 hrs by SRB assay relative to control; settings: CAKI-1, 48 h, read-out: GI
U-251 = test: Growth inhibition of human U251 cells at 10 uM after 48 hrs by SRB assay relative to control; settings: U-251, 48 h, read-out: GI
HOP-92 = test: Growth inhibition of human HOP92 cells at 10 uM after 48 hrs by SRB assay relative to control; settings: HOP-92, 48 h, read-out: GI
UACC-257 = test: Growth inhibition of human UACC257 cells at 10 uM after 48 hrs by SRB assay relative to control; settings: UACC-257, 48 h, read-out: GI
PC-3 = test: Growth inhibition of human PC3 cells at 10 uM after 48 hrs by SRB assay relative to control; settings: PC-3, 48 h, read-out: GI
OVCAR-8 = test: Growth inhibition of human OVCAR8 cells at 10 uM after 48 hrs by SRB assay relative to control
HOP-62 = test: Growth inhibition of human HOP62 cells at 10 uM after 48 hrs by SRB assay relative to control
SK-MEL-2 = test: Growth inhibition of human SK-MEL-2 cells at 10 uM after 48 hrs by SRB assay relative to control; settings: SK-MEL-2, 48 h, read-out: GI
UACC-62 = test: Growth inhibition of human UACC62 cells at 10 uM after 48 hrs by SRB assay relative to control
NCI-H226 = test: Growth inhibition of human NCI-H226 cells at 10 uM after 48 hrs by SRB assay relative to control; settings: NCI-H226, 48 h, read-out: GI
RXF 393 = test: Growth inhibition of human RXF393 cells at 10 uM after 48 hrs by SRB assay relative to control
786-0 = test: Growth inhibition of human 786-0 cells at 10 uM after 48 hrs by SRB assay relative to control
Malme-3M = test: Growth inhibition of human MALME-3M cells at 10 uM after 48 hrs by SRB assay relative to control
A549 = test: Growth inhibition of human A549 cells at 10 uM after 48 hrs by SRB assay relative to control; settings: A549, 48 h, read-out: GI
SK-MEL-5 = test: Growth inhibition of human SK-MEL-5 cells at 10 uM after 48 hrs by SRB assay relative to control
MCF7 = test: Growth inhibition of human MCF7 cells at 10 uM after 48 hrs by SRB assay relative to control; settings: MCF7, 48 h, read-out: GI
NCI/ADR-RES = test: Growth inhibition of human NCI/ADR-RES cells at 10 uM after 48 hrs by SRB assay relative to control
SK-OV-3 = test: Growth inhibition of human SKOV3 cells at 10 uM after 48 hrs by SRB assay relative to control
LOX IMVI = test: Growth inhibition of human LOXIMVI cells at 10 uM after 48 hrs by SRB assay relative to control; settings: read-out: GI
HCT-116 = test: Growth inhibition of human HCT116 cells at 10 uM after 48 hrs by SRB assay relative to control
UO-31 = test: Growth inhibition of human UO31 cells at 10 uM after 48 hrs by SRB assay relative to control; settings: UO-31, 48 h, read-out: GI
NCI-H322M = test: Growth inhibition of human NCI-H322M cells at 10 uM after 48 hrs by SRB assay relative to control
A498 = test: Growth inhibition of human A498 cells at 10 uM after 48 hrs by SRB assay relative to control; settings: A498, 48 h, read-out: GI
KM12 = test: Growth inhibition of human KM12 cells at 10 uM after 48 hrs by SRB assay relative to control
OVCAR-4 = test: Growth inhibition of human OVCAR4 cells at 10 uM after 48 hrs by SRB assay relative to control
OVCAR-3 = test: Growth inhibition of human OVCAR3 cells at 10 uM after 48 hrs by SRB assay relative to control
K562 = test: Growth inhibition of human K562 cells at 10 uM after 48 hrs by SRB assay relative to control; settings: K562, 48 h, read-out: GI
MDA-MB-468 = test: Growth inhibition of human MDA-MB-468 cells at 10 uM after 48 hrs by SRB assay relative to control
Hs-578T = test: Growth inhibition of human Hs 578T cells at 10 uM after 48 hrs by SRB assay relative to control
NCI-H522 = test: Growth inhibition of human NCI-H522 cells at 10 uM after 48 hrs by SRB assay relative to control; settings: NCI-H522, 48 h, read-out: GI
HT-29 = test: Growth inhibition of human HT-29 cells at 10 uM after 48 hrs by SRB assay relative to control
MOLT-4 = test: Growth inhibition of human MOLT4 cells at 10 uM after 48 hrs by SRB assay relative to control
HL-60 = test: Growth inhibition of human HL60 cells at 10 uM after 48 hrs by SRB assay relative to control
SNB-75 = test: Growth inhibition of human SNB75 cells at 10 uM after 48 hrs by SRB assay relative to control; settings: SNB-75, 48 h, read-out: GI
CCRF-CEM = test: Growth inhibition of human CCRF-CEM cells at 10 uM after 48 hrs by SRB assay relative to control; settings: read-out: GI
SR = test: Growth inhibition of human SR cells at 10 uM after 48 hrs by SRB assay relative to control; settings: read-out: GI
SNB-19 = test: Growth inhibition of human SNB19 cells at 10 uM after 48 hrs by SRB assay relative to control
NCI-H23 = test: Growth inhibition of human NCI-H23 cells at 10 uM after 48 hrs by SRB assay relative to control; settings: NCI-H23, 48 h, read-out: GI

COc1ccc(Cc2nnc3sc(SC)nn23)cc1
inhibition of growth at 10 µM (SF-268): 2.15% | inhibition of growth at 10 µM (RPMI-8226): 1.21% | inhibition of growth at 10 µM (CAKI-1): 4.37% | inhibition of growth at 10 µM (U-251): 3.17% | inhibition of growth at 10 µM (HOP-92): 13.4% | inhibition of growth at 10 µM (UACC-257): 9.07% | inhibition of growth at 10 µM (PC-3): 2.19% | growth inhibition (GI) (OVCAR-8): inactive | growth inhibition (GI) (HOP-62): inactive | inhibition of growth at 10 µM (SK-MEL-2): 14.7% | growth inhibition (GI) (UACC-62): inactive | inhibition of growth at 10 µM (NCI-H226): 4.76% | growth inhibition (GI) (RXF 393): inactive | growth inhibition (GI) (786-0): inactive | growth inhibition (GI) (Malme-3M): inactive | inhibition of growth at 10 µM (A549): 4.46% | growth inhibition (GI) (SK-MEL-5): inactive | inhibition of growth at 10 µM (MCF7): 8.21% | growth inhibition (GI) (NCI/ADR-RES): inactive | growth inhibition (GI) (SK-OV-3): inactive | inhibition of growth at 10 µM (LOX IMVI): 2.73% | growth inhibition (GI) (HCT-116): inactive | inhibition of growth at 10 µM (UO-31): 12.7% | growth inhibition (GI) (NCI-H322M): inactive | inhibition of growth at 10 µM (A498): 3.37% | growth inhibition (GI) (KM12): inactive | growth inhibition (GI) (OVCAR-4): inactive | growth inhibition (GI) (OVCAR-3): inactive | inhibition of growth at 10 µM (K562): 3.47% | growth inhibition (GI) (MDA-MB-468): inactive | growth inhibition (GI) (Hs-578T): inactive | inhibition of growth at 10 µM (NCI-H522): 12.2% | growth inhibition (GI) (HT-29): inactive | growth inhibition (GI) (MOLT-4): inactive | growth inhibition (GI) (HL-60): inactive | inhibition of growth at 10 µM (SNB-75): 8.34% | inhibition of growth at 10 µM (CCRF-CEM): 5.04% | inhibition of growth at 10 µM (SR): 7.53% | growth inhibition (GI) (SNB-19): inactive | inhibition of growth at 10 µM (NCI-H23): 5.4%

From ChEMBL document CHEMBL4190322, “Structure-based development of novel triazoles and related thiazolotriazoles as anticancer agents and Cdc25A/B phosphatase inhibitors. Synthesis, in vitro biological evaluation, molecular docking and in silico ADME-T studies” (Eur J Med Chem, 2017)
